Assay results: patent publication US11613546B2, “Substituted pyridotriazine compounds and uses thereof” (Gilead Sciences, Inc., priority 2021, dated 2023)
Where two headings read alike, the source gives them in different places.

Columns and labels:
Assay type in all cases: cell-based
[1] = Cytotoxicity assay in MT-4 cells; details: human
Description: (§1) Compounds were tested in a high-throughput 384-well assay format for their ability to inhibit the replication of HIV-1 (IIIB) in MT-4 cells. Compounds were serially diluted (1:3) in DMSO on 384-well polypropylene plates and further diluted 200-fold into complete RPMI media (10% FBS, 1% P/S) using the Biotek Micro Flow and Labcyte ECHO acoustic dispenser. Each plate contained up to 8 test compounds, with negative (No Drug Control) and 5 μM AZT positive controls. MT-4 cells were pre-infected with 10 μL of either RPMI (mock-infected) or a fresh 1:250 dilution of HIV-1 IIIB concentrated virus stock. Infected and uninfected MT-4 cells were further diluted in complete RPMI media and added to each plate using a Micro Flow dispenser. After 5 days incubation in a humidified and temperature controlled incubator (37° C.), Cell Titer Glo (Promega) was added to the assay plates and chemiluminescence read using an Envision plate-reader. EC50 values were defined as the compound concentration that causes a 50% decrease in luminescence signal, and were calculated using a sigmoidal dose-response model to generate curve fits. Cytotoxicity Assay in MT-4 Cells Assays were performed as above except uninfected MT-4 cells were added to each well containing test compound. In addition, 10 μM puromycin was added to the last column of each assay plate to assess a base level of cytotoxicity.

HIV-1 (IIIB) = experiment: Antiviral assay in MT-4 cells; details: Human immunodeficiency virus 1, IIIB, MT4, 120 h, HIV-1 IIIB infected MT-4 cells, 5 days, Cell Titer Glo; read-out: MT4 EC50
Description: Antiviral Assay in MT-4 Cells
as §1, with “fits.” for “fits. Cytotoxicity Assay in MT-4 Cells Assays were performed as above except uninfected MT-4 cells were added to each well containing test compound. In addition, 10 μM puromycin was added to the last column of each assay plate to assess a base level of cytotoxicity.”

pLai RLuc reporter virus = experiment: HIV MT-4 serum shift antiviral reporter assay; details: Human immunodeficiency virus 1, 72 h
Description: To quantify the amount of protein binding to human serum, compounds were serially diluted (1:3) in DMSO and acoustically transferred onto 384-well assay plates via a Labcyte ECHO robot. Each plate contained up to 8 test compounds, including negative and positive controls, (DMSO, 5 μM AZT respectively). Assay plates were prepared in duplicate, and tested in either CCM (cell culture media) or HS/CCM (human serum/cell culture media). MT-4 cells were first pre-infected with pLai RLuc reporter virus for 2 h at 37° C., then further diluted in either CCM (RPMI media, 10% FBS, 1% P/S) or HS/CCM (RPMI media, 10% FBS, 50% HS, 1% P/S), and subsequently added to each plate using a Biotek Micro Flow dispenser. After a 72-h incubation in a humidified and temperature controlled incubator (37° C.), Renilla Glo (Promega) was added to all assay plates and chemiluminescence read using an Envision plate-reader. EC50 values were defined as the compound concentration that causes a 50% decrease in luminescence signal, and were calculated using a sigmoidal dose-response model to generate curve fits. To determine the amount of protein binding, EC50 fold shifts (or EC50 shifts) were calculated by dividing EC50 (HS/CCM)/EC50 (CCM).

[2] = uninfected MT-4 cells, 5 days, Cell Titer Glo, read-out: CC50
[3] = read-out: RLUC 50% HS (nM), HS/CCM: 50% human serum, 72 h, Renilla Glo
[4] = read-out: RLUC CCM (nM), cell culture media (RPMI, 10% FBS), 72 h, Renilla Glo

Structure (SMILES): C[C@H]1C=CCN2CN1C(=O)c1c(O)c(=O)c(C(=O)NCc3c(F)cc(F)cc3F)cn12 [Example C5, (10S)-6-hydroxy-10-methyl-5,8-dioxo-N-[(2,4,6-trifluorophenyl)methyl]-1,2,9-triazatricyclo[7.4.1.02,7]tetradeca-3,6,11-triene-4-carboxamide]
- CC50 at 5 days [1, 2]: 14200 nM
- EC50 (HIV-1 (IIIB)): 3.4 nM
- EC50 (pLai RLuc reporter virus; [3]): 40.4 nM
- EC50 (pLai RLuc reporter virus; [4]): 0.42 nM

Structure (SMILES): CC(C)[C@@H]1CC[C@H](C)N2CN1n1cc(C(=O)NCc3c(F)cc(F)cc3F)c(=O)c(O)c1C2=O [Example C75, (1S,2S,5S)-8-hydroxy-2-isopropyl-5-methyl-7,9-dioxo-N-(2,4,6-trifluorobenzyl)-2,3,4,5,7,9-hexahydro-1,6-methanopyrido[1,2-b][1,2,5]triazonine-10-carboxamide]
- CC50 at 5 days [1, 2]: 10900 nM
- EC50 (HIV-1 (IIIB)): 2 nM
- EC50 (pLai RLuc reporter virus; [3]): 277 nM
- EC50 (pLai RLuc reporter virus; [4]): 1.02 nM

Structure (SMILES): COC[C@@H]1C=C[C@H](C)N2CN1n1cc(C(=O)NCc3ccc(F)cc3F)c(=O)c(O)c1C2=O [Example C82, (1S,2S,5S)—N-(2,4-difluorobenzyl)-8-hydroxy-2-(methoxymethyl)-5-methyl-7,9-dioxo-2,5,7,9-tetrahydro-1,6-methanopyrido[1,2-b][1,2,5]triazonine-10-carboxamide]
- CC50 at 5 days [1, 2]: 16800 nM
- EC50 (HIV-1 (IIIB)): 1.3 nM
- EC50 (pLai RLuc reporter virus; [3]): 75 nM
- EC50 (pLai RLuc reporter virus; [4]): 0.73 nM

Structure (SMILES): CC[C@@H]1CC[C@H](C)N2CN1n1cc(C(=O)NCc3c(F)cc(F)cc3F)c(=O)c(O)c1C2=O [Example C73, (1S,2R,5S)-2-ethyl-8-hydroxy-5-methyl-7,9-dioxo-N-(2,4,6-trifluorobenzyl)-2,3,4,5,7,9-hexahydro-1,6-methanopyrido[1,2-b][1,2,5]triazonine-10-carboxamide]
- CC50 at 5 days [1, 2]: 7640 nM
- EC50 (HIV-1 (IIIB)): 0.8 nM
- EC50 (pLai RLuc reporter virus; [3]): 276 nM
- EC50 (pLai RLuc reporter virus; [4]): 0.63 nM

Structure (SMILES): C[C@H]1CC[C@@H](CF)N2CN1C(=O)c1c(O)c(=O)c(C(=O)NCc3c(F)cc(F)cc3F)cn12 [Example C77, (1S,2S,5S)-2-(fluoromethyl)-8-hydroxy-5-methyl-7,9-dioxo-N-(2,4,6-trifluorobenzyl)-2,3,4,5,7,9-hexahydro-1,6-methanopyrido[1,2-b][1,2,5]triazonine-10-carboxamide]
- CC50 at 5 days [1, 2]: 15700 nM
- EC50 (HIV-1 (IIIB)): 2 nM
- EC50 (pLai RLuc reporter virus; [3]): 296 nM
- EC50 (pLai RLuc reporter virus; [4]): 1.14 nM

Structure (SMILES): C[C@@H]1C=C[C@H](CF)N2CN1n1cc(C(=O)NCc3c(F)cc(F)cc3F)c(=O)c(O)c1C2=O [Example C50, (1S,2R,5R)-5-(fluoromethyl)-8-hydroxy-2-methyl-7,9-dioxo-N-(2,4,6-trifluorobenzyl)-2,5,7,9-tetrahydro-1,6-methanopyrido[1,2-b][1,2,5]triazonine-10-carboxamide]
- CC50 at 5 days [1, 2]: 13300 nM
- EC50 (HIV-1 (IIIB)): 0.85 nM
- EC50 (pLai RLuc reporter virus; [3]): 850 nM
- EC50 (pLai RLuc reporter virus; [4]): 0.37 nM

Structure (SMILES): C[C@H]1[C@@H](F)C[C@H](C)N2CN1C(=O)c1c(O)c(=O)c(C(=O)NCc3ccc(F)cc3F)cn12 [Example C58, (1S,2S,4S,5S)—N-(2,4-difluorobenzyl)-4-fluoro-8-hydroxy-2,5-dimethyl-7,9-dioxo-2,3,4,5,7,9-hexahydro-1,6-methanopyrido[1,2-b][1,2,5]triazonine-10-carboxamide]
- CC50 at 5 days [1, 2]: 11300 nM
- EC50 (HIV-1 (IIIB)): 1.5 nM
- EC50 (pLai RLuc reporter virus; [3]): 294 nM
- EC50 (pLai RLuc reporter virus; [4]): 0.28 nM

Structure (SMILES): C[C@@H]1CC[C@@H](C)N2CN1C(=O)c1c(O)c(=O)c(C(=O)NCc3ccc(F)cc3F)cn12 [Example C67, (1S,2R,5R)—N-(2,4-difluorobenzyl)-8-hydroxy-2,5-dimethyl-7,9-dioxo-2,3,4,5,7,9-hexahydro-1,6-methanopyrido[1,2-b][1,2,5]triazonine-10-carboxamide]
- CC50 at 5 days [1, 2]: 25500 nM
- EC50 (HIV-1 (IIIB)): 1.9 nM
- EC50 (pLai RLuc reporter virus; [3]): 35.3 nM
- EC50 (pLai RLuc reporter virus; [4]): 0.51 nM

Structure (SMILES): O=C(NCc1c(F)cc(F)cc1F)c1cn2c(c(O)c1=O)C(=O)N1CCCCN2C1Cc1ccccc1 (stereo not shown) [Example C6, 13-benzyl-8-hydroxy-7,9-dioxo-N-(2,4,6-trifluorobenzyl)-2,3,4,5,7,9-hexahydro-1,6-methanopyrido[1,2-b][1,2,5]triazonine-10-carboxamide]
- CC50 at 5 days [1, 2]: 9880 nM
- EC50 (HIV-1 (IIIB)): 7.5 nM
- EC50 (pLai RLuc reporter virus; [3]): 23.1 nM
- EC50 (pLai RLuc reporter virus; [4]): 3.5 nM

Structure (SMILES): C[C@@H]1CC[C@@H](C)N2CN1C(=O)c1c(O)c(=O)c(C(=O)NCc3c(F)cc(F)cc3F)cn12 [Example C65, (1S,2R,5R)-8-hydroxy-2,5-dimethyl-7,9-dioxo-N-(2,4,6-trifluorobenzyl)-2,3,4,5,7,9-hexahydro-1,6-methanopyrido[1,2-b][1,2,5]triazonine-10-carboxamide]
- CC50 at 5 days [1, 2]: 15400 nM
- EC50 (HIV-1 (IIIB)): 1.8 nM
- EC50 (pLai RLuc reporter virus; [3]): 63.8 nM
- EC50 (pLai RLuc reporter virus; [4]): 0.44 nM

Structure (SMILES): C[C@@H]1C=C[C@@H](C)N2CN1C(=O)c1c(O)c(=O)c(C(=O)NCc3c(F)cc(F)cc3F)cn12 [Example C64, (1S,2R,5R)-8-hydroxy-2,5-dimethyl-7,9-dioxo-N-(2,4,6-trifluorobenzyl)-2,5,7,9-tetrahydro-1,6-methanopyrido[1,2-b][1,2,5]triazonine-10-carboxamide]
- CC50 at 5 days [1, 2]: 11400 nM
- EC50 (HIV-1 (IIIB)): 0.8 nM
- EC50 (pLai RLuc reporter virus; [3]): 150 nM
- EC50 (pLai RLuc reporter virus; [4]): 0.27 nM

Structure (SMILES): CO[C@@H]1CC[C@H](C)N2CN1n1cc(C(=O)NCc3c(F)cc(F)cc3F)c(=O)c(O)c1C2=O [Example C47, (1R,2R,5S)-8-hydroxy-2-methoxy-5-methyl-7,9-dioxo-N-(2,4,6-trifluorobenzyl)-2,3,4,5,7,9-hexahydro-1,6-methanopyrido[1,2-b][1,2,5]triazonine-10-carboxamide]
- CC50 at 5 days [1, 2]: 11500 nM
- EC50 (HIV-1 (IIIB)): 1.8 nM
- EC50 (pLai RLuc reporter virus; [3]): 196 nM
- EC50 (pLai RLuc reporter virus; [4]): 1.71 nM

Structure (SMILES): C[C@H]1C=CC2(CCC2)N2CN1C(=O)c1c(O)c(=O)c(C(=O)NCc3c(F)cc(F)cc3F)cn12 [Example C104, (1′S,5′S)-8′-hydroxy-5′-methyl-7′,9′-dioxo-N-(2,4,6-trifluorobenzyl)-7′,9′-dihydro-5′H-spiro[cyclobutane-1,2′-[1,6]methanopyrido[1,2-b][1,2,5]triazonine]-10′-carboxamide]
- CC50 at 5 days ([1]; CC50 (nM)): 19700 nM
- EC50 (HIV-1 (IIIB)): 1.4 nM
- EC50 (pLai RLuc reporter virus; [3]): 140 nM
- EC50 (pLai RLuc reporter virus; [4]): 0.44 nM

Structure (SMILES): CC[C@H]1C=C[C@H](C)N2CN1n1cc(C(=O)NCc3c(F)cc(F)cc3F)c(=O)c(O)c1C2=O [Example C106, (1S,2S,5S)-2-ethyl-8-hydroxy-5-methyl-7,9-dioxo-N-(2,4,6-trifluorobenzyl)-2,5,7,9-tetrahydro-1,6-methanopyrido[1,2-b][1,2,5]triazonine-10-carboxamide]
- CC50 at 5 days [1, 2]: 18400 nM
- EC50 (HIV-1 (IIIB)): 1.7 nM
- EC50 (pLai RLuc reporter virus; [3]): 107 nM
- EC50 (pLai RLuc reporter virus; [4]): 0.22 nM

Structure (SMILES): C[C@@H]1C[C@@H](CF)[C@H](C)N2CN1n1cc(C(=O)NCc3c(F)cc(F)cc3F)c(=O)c(O)c1C2=O [Example C57, (1S,2R,4R,5S)-4-(fluoromethyl)-8-hydroxy-2,5-dimethyl-7,9-dioxo-N-(2,4,6-trifluorobenzyl)-2,3,4,5,7,9-hexahydro-1,6-methanopyrido[1,2-b][1,2,5]triazonine-10-carboxamide]
- CC50 at 5 days [1, 2]: 8930 nM
- EC50 (HIV-1 (IIIB)): 1.2 nM
- EC50 (pLai RLuc reporter virus; [3]): 11.6 nM
- EC50 (pLai RLuc reporter virus; [4]): 0.27 nM

Structure (SMILES): CO[C@H]1C[C@@H](C)N2CN(C[C@H]1OC)C(=O)c1c(O)c(=O)c(C(=O)NCc3ccc(F)cc3F)cn12 [Example C39, (1S,2R,4S,5R)—N-(2,4-difluorobenzyl)-9-hydroxy-4,5-dimethoxy-2-methyl-8,10-dioxo-3,4,5,6,8,10-hexahydro-2H-1,7-methanopyrido[1,2-b][1,2,5]triazecine-11-carboxamide]
- CC50 at 5 days [1, 2]: 20300 nM
- EC50 (HIV-1 (IIIB)): 3.5 nM
- EC50 (pLai RLuc reporter virus; [3]): 4.7 nM
- EC50 (pLai RLuc reporter virus; [4]): 0.93 nM
